Consider 18 compounds from ChEMBL document CHEMBL5505953, “Facilitating the development of molecular glues: Opportunities from serendipity and rational design” (Eur J Med Chem, 2024).

Targets include RNA-binding protein 39 (Homo sapiens, UniProt Q14498); Estrogen receptor (Homo sapiens, UniProt P03372); Protein cereblon (Homo sapiens, UniProt Q96SW2); CDK12/Cyclin K (Homo sapiens, UniProt Q9NYV4).
Test [1] has as its target Cystic fibrosis transmembrane conductance regulator (Homo sapiens, UniProt P13569).
Test [2] deals with Protein cereblon/Tyrosine-protein kinase BTK (Homo sapiens, UniProt Q06187+Q96SW2). Conditions: ramos.
Another test concerns MDA-MB-231. Nature of the test: cells. Conditions: Homo sapiens, MDA-MB-231, 48 h.
Another test has as its system HCC38. Nature of the test: cells. Conditions: Homo sapiens, HCC38, 48 h.
Test [3] concerns the target Cereblon/Casein kinase I alpha (Homo sapiens, UniProt P48729+Q96SW2). Conditions: molm-13.
The target of test [4] is Protein cereblon/Zinc finger protein Helios (Homo sapiens, UniProt Q96SW2+Q9UKS7). Conditions: hek293t.
Another test relates to HeLa. Nature of the test: cells. Conditions: Homo sapiens, 48 h.
The test system of test [5] is A549. Nature of the test: cells. Conditions: Homo sapiens, A549, 48 h.
In the next test the test system is MCF7. Briefly: cells. To be noted: Homo sapiens, MCF7, 48 h.
In another test the test system is PC-3. Nature of the test: cells. Conditions: Homo sapiens, PC-3, 48 h.
The test system of another test is NCI-H2122. Briefly: cells. To be noted: Homo sapiens, NCI-H2122, 48 h.
For a further test, the system named is NCI-H1563. Briefly: cells. Conditions: Homo sapiens, NCI-H1563, 48 h.
For test [6], the target named is B-cell lymphoma 6 protein (Homo sapiens, UniProt P41182).
Test [7] addresses 14-3-3 protein beta/alpha (Homo sapiens, UniProt P31946).
A further test addresses Cyclin-K (Homo sapiens, UniProt O75909). To be noted: hct-116.
Test [8] has as its system A549. Briefly: cells. To be noted: Homo sapiens, A549, 72 h.
For a further test, the system named is HCT-116. Nature of the test: cells. Conditions: Homo sapiens, HCT-116, 72 h.
In the next test the test system is LN-229. Nature of the test: cells. To be noted: Homo sapiens, LN-229, 144 h.

Bounds are passed on as bounds.

CDK12/Cyclin K, sequence (O75909 whole entry): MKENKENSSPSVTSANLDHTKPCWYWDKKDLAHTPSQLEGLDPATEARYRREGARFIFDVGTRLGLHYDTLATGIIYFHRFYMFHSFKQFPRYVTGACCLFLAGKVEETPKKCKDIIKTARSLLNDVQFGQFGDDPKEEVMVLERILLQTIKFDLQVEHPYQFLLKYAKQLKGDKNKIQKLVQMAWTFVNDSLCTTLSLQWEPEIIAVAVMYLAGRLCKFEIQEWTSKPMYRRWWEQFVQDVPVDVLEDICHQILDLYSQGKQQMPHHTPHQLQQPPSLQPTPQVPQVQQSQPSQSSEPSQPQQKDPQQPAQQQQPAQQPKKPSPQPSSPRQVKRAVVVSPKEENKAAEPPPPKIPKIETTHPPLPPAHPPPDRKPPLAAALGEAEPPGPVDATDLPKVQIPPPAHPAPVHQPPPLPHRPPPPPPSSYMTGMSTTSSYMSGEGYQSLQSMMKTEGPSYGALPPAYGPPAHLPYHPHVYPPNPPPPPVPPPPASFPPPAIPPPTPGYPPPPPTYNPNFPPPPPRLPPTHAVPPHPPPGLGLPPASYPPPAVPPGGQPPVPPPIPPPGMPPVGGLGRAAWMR
CDK12/Cyclin K, sequence (Q9NYV4 whole entry): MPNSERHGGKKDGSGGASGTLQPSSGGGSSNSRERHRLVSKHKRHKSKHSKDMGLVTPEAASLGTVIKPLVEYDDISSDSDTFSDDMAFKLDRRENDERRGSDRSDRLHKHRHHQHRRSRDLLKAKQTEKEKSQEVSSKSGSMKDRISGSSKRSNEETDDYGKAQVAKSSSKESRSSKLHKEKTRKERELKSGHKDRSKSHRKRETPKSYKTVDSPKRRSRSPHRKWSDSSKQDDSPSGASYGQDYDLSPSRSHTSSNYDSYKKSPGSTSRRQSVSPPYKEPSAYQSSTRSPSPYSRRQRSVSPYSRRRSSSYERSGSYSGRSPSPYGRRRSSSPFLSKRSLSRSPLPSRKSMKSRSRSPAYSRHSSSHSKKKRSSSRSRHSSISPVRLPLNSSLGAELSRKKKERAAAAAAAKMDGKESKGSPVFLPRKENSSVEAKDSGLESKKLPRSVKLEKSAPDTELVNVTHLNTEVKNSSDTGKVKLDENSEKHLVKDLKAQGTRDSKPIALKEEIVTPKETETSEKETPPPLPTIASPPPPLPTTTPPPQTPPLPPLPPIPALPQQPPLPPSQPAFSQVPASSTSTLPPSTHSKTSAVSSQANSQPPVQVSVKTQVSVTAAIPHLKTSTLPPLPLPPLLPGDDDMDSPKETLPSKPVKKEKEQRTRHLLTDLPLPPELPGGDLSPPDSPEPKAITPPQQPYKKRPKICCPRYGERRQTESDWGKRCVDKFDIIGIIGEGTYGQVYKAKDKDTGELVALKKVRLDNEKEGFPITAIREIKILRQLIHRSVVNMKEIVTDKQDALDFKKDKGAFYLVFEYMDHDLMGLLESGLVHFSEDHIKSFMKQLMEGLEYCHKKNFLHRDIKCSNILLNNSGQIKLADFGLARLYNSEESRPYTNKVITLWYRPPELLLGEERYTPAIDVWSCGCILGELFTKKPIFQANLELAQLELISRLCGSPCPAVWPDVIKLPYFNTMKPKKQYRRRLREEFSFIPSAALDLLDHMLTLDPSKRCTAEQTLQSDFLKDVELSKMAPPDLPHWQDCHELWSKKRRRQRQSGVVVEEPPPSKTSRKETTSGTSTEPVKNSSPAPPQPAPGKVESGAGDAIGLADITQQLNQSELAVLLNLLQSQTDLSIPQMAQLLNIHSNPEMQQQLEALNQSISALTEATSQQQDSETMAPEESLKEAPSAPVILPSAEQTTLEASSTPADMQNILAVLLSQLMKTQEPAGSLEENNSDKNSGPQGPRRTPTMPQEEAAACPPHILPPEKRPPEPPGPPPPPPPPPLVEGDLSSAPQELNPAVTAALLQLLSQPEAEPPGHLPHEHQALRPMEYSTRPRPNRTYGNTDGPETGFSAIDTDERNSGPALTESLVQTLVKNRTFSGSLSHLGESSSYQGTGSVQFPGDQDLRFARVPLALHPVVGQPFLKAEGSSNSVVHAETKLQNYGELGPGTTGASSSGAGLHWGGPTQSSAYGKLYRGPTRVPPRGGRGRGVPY
Protein cereblon/Zinc finger protein Helios, sequence (Q96SW2 whole entry): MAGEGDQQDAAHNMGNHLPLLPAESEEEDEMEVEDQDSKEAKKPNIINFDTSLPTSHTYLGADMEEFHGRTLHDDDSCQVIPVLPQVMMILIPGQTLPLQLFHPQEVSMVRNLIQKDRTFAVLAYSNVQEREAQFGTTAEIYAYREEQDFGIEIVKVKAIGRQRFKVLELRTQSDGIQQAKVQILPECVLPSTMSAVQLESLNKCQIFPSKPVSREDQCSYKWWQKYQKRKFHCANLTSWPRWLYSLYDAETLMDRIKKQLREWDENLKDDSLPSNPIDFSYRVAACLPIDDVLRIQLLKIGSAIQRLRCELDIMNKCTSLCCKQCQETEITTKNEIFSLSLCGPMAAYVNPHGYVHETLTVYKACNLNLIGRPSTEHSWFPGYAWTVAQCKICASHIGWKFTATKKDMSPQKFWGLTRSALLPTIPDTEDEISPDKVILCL
Protein cereblon/Zinc finger protein Helios, sequence (Q9UKS7 whole entry): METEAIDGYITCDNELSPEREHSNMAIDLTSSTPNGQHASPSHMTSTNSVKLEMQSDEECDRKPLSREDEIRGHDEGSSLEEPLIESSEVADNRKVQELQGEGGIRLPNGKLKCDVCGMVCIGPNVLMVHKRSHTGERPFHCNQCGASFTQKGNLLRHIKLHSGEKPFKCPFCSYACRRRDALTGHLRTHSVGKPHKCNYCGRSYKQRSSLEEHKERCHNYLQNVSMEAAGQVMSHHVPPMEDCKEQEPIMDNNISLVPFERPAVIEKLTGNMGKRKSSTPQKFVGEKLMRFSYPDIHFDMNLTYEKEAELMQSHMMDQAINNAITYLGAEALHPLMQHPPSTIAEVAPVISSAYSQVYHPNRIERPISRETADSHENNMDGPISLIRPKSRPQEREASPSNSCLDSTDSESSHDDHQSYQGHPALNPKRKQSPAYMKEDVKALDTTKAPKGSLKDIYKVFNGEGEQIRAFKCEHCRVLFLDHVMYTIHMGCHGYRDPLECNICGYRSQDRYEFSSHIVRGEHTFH
14-3-3 protein beta/alpha, sequence (P31946 whole entry): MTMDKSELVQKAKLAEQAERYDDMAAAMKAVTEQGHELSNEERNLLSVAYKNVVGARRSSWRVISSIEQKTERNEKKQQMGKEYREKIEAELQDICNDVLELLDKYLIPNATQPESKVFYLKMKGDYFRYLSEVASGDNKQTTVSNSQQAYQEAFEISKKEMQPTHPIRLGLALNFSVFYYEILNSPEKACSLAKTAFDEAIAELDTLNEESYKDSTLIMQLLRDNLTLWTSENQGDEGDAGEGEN
Estrogen receptor, sequence (P03372 whole entry): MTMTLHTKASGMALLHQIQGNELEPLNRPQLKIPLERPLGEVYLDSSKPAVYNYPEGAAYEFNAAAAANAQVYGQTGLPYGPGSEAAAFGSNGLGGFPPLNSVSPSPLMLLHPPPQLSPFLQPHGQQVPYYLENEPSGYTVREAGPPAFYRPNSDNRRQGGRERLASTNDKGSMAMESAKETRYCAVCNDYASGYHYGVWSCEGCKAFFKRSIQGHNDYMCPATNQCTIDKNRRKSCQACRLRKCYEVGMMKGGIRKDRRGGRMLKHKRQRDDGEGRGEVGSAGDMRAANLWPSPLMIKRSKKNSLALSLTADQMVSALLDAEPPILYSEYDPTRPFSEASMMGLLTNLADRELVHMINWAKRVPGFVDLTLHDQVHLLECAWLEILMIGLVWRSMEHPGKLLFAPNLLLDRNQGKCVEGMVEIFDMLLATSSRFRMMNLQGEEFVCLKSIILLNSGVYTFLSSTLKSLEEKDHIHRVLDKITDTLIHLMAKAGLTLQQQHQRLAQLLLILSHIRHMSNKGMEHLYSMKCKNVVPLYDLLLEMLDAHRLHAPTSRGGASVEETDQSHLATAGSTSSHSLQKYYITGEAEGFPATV
Cereblon/Casein kinase I alpha, sequence (P48729 whole entry): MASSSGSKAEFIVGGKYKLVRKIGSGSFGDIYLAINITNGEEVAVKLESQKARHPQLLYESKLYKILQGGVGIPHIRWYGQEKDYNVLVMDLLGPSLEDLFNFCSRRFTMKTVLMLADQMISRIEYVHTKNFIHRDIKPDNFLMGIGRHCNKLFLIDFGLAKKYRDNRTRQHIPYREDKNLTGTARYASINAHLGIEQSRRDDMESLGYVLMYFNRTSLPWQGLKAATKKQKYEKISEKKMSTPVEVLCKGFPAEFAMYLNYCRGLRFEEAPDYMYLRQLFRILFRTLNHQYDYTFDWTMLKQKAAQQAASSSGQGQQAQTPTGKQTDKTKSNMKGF
Cereblon/Casein kinase I alpha, sequence (Q96SW2 whole entry): as the sequence (Q96SW2 whole entry) above
Protein cereblon, sequence (Q96SW2 whole entry): as above
Cyclin-K, sequence (O75909 whole entry): as the sequence (O75909 whole entry) above
RNA-binding protein 39, sequence (Q14498 whole entry): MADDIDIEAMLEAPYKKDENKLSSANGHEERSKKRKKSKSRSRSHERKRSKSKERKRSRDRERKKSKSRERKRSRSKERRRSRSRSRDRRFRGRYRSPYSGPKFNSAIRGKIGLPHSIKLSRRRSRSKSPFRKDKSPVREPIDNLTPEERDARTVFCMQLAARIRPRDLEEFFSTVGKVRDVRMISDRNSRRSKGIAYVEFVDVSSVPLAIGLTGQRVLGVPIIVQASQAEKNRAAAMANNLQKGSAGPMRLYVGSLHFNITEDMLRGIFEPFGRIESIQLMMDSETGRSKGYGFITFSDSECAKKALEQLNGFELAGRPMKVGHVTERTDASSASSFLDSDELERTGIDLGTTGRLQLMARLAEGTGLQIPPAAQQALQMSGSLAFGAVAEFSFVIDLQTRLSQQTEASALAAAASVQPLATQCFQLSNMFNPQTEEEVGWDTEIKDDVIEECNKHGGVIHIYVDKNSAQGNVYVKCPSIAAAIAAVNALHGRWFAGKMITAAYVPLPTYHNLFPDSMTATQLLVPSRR

Regarding `N=C(N)NCCC[C@@H]1NCc2ccccc2Sc2ccccc2CNC(=O)[C@H](Cc2ccc(O)cc2)NC(=O)[C@H](CCCN)NC1=O`, in test [1], half-maximal inhibition (IC50) was put at 36100 nM.
In [2], `Nc1ncnc2c1c(-c1ccc(Oc3ccccc3)cc1)nn2[C@H]1CCCN(C(=O)CCCCCCCCNc2ccc3c(c2)C(=O)N(C2CCC(=O)NC2=O)C3=O)C1` (stereo partly specified) gave a DC50 of 50 nM.
`O=C(/C=C/C=C/C=C/C1CCCCC1)NC1=C[C@@](O)(/C=C/C=C/C=C/C(=O)NC2=C(O)CCC2=O)[C@@H]2O[C@@H]2C1=O`: the EC50 (commonly the concentration that produces a half-maximal response) in the test on MDA-MB-231 turned out to be 13800 nM; in the test on HCC38 it was 4500 nM.
With `Cc1ccc(S(=O)(=O)N/N=C/c2cc(Br)ccc2O)cc1`, at RNA-binding protein 39, the half-maximal inhibitory concentration (IC50) (in general, the concentration at which inhibition is half-maximal) turned out to be 400 nM.
Regarding `O=C1CCC(N2Cc3c(CNC(=O)c4ccc(F)cc4)cccc3C2=O)C(=O)N1` (stereo unspecified), the DC50 in [3] turned out to be 11 nM.
`O=C1CCC(N2Cc3cc(C4CCN(Cc5ccccc5)CC4)ccc3C2=O)C(=O)N1` (stereo unspecified) gave a DC50 in test [4] of 4000 nM.
In the case of `CCN(CC)c1ccc(C2=NNC(=O)CC2C)cc1[N+](=O)[O-]` (stereo unspecified), the EC50 in the test on HeLa, with A549 [5], with MCF7, in the test on PC-3, with NCI-H2122 and in the test on NCI-H1563 was 10 nM each time.
`O=C(C1=C(O)C(=O)N(c2ccccc2O)C1c1ccc([N+](=O)[O-])cc1)c1ccccc1` (stereo unspecified) registered an IC50 against Estrogen receptor of 75000 nM.
With `NS(=O)(=O)c1ccc(S(=O)(=O)Nc2cccc3c(Cl)c[nH]c23)cc1`, on Protein cereblon, the IC50 came out at 360 nM.
As to `CNC(=O)COc1cc2cc(Nc3nc(N4C[C@H](C)C[C@H](C)C4)ncc3Cl)ccc2n(C)c1=O`, the IC50 in test [6] was < 3 nM.
As to `O=C(CSc1nnc2c(n1)[nH]c1ccccc12)Nc1ccc(Cl)cn1`, half-maximal inhibition against CDK12/Cyclin K (IC50) required 400 nM.
On to `Cc1ccc(C(=O)N2CSCC2C(=O)/N=c2/[nH]cc(C)s2)o1` (stereo unspecified), for which, at CDK12/Cyclin K, the IC50 was 400 nM.
`O=C1CCC(N2Cc3cc(C4CCNCC4)ccc3C2=O)C(=O)N1` (stereo unspecified): the DC50 in test [4] is > 50000 nM.
For the compound `O=C(COc1ccccc1P(=O)(O)O)NCCc1ccccc1`, the IC50 in test [7] was 5200 nM.
As to `Cc1cccc(Nc2nc(CC(=O)Nc3ncc(C)s3)cs2)n1`, the DC50 at Cyclin-K turned out to be 132 nM. For the same compound, the IC50 in the test on A549 [8] and in the test with HCT-116 was 1300 nM each time.
In turn, `O=C(Nc1ccc(Cl)c([N+](=O)[O-])c1)Nc1nc2ccccc2s1` gave an IC50 in the test on LN-229 of 2300 nM.
Still for that read-out and setting: the result for `N#Cc1ccc2nc(NC(=O)Nc3cccc(Cl)c3)sc2c1` reads 850 nM.
As for `O=C(CSc1nc2ccccc2[nH]1)Nc1ccc(Cl)cn1`, the midpoint of inhibition at CDK12/Cyclin K, the IC50, lay at 400 nM.
